Test results reported in patent US6399570B1, “Antimicrobial/endotoxin neutralizing polypeptide” (priority 1999, dated 2002).

What was measured:
cathepsin D = target: T1, cathepsin D (Bos taurus, UniProt P80209); assay: Exposure of LF digest to cathepsin D, persistence of the 6 kDa polypeptide; format: in vitro ADME, bovine; conditions: immunoblot
T1 construct: Prior to digestion with bovine spleen cathepsin D (Sigma); purchased Sigma; host or cells: bovine spleen (tissue-derived enzyme)
Text: To establish which protease(s) could be responsible for releasing the N-terminal domain, LF processing by several proteases relevant to inflammation or microbial infections, including elastase, cathepsins G and D, a matrix metalloproteinase, and the “V8” protease from S. aureus, was examined. Of these, only cathepsin D, a lysosomal protease abundant in phagocytes (Bever et al., Inflammation 13: 309-16 (1989); Levy et al., Infect. Immun. 57: 1632-4 (1989)), was able to liberate the N-terminus intact as a small, heparin-binding, polypeptide. Exposure of either iron-saturated or iron-free LF to even small amounts of cathepsin D (1/200th, w:w) for a period as brief as five minutes yielded the N-terminal 6 kDa polypeptide, detectable by immunoblot analysis, using the N-terminal peptide-specific antibody. […] MALDI mass spectrometry analysis indicated a molecular mass of 5741 Da, very close to the value of 5744 Da expected for a LF polypeptide starting at Gly-1 and ending with Ala-49.
Purification of LF from human colostrum and proteolytic liberation of the antimicrobial domain in vitro. Frozen colostrum was thawed at 37° C. and defatted by centrifugation for 40 min at 10,000×g at 4° C. […] LF concentration was determined spectrophotometrically at 280 nm (using E280nm 1 cm 0.1%=1.0402). […]

N. min. LPS = assay: Limulus ELISA, ENC50 against N. min. LPS; format: biochemical, Neisseria meningitidis; conditions: endotoxin 200 EU/ml; mean +/− SD
Procedure: The peptide-mediated inhibition of endotoxin-induced Limulus amebocyte lysate (LAL) coagulation was measured with a sensitive LAL assay (Zhang et al., J. Clin. Microbiol. 32: 416-422 (1994)). Limulus ELISA is an endotoxin assay based on activation of the LAL coagulation by endotoxin and detection of the generated peptide-C immunoreactivity with an ELISA using a monoclonal antibody to the polypeptide. Endotoxin was defined to be neutralized when it lost its ability to activate the LAL enzymes. The 50% endotoxin-neutralizing concentration (ENC50) reflects the potency of an anti-endotoxin agent; a low ENC50 indicates high potency. Table 2 lists the determined ENC50 value of each anti-endotoxin agent against lipid A and four different types of LPS. The potency of each anti-endotoxin agent varied depending on the type of endotoxin. […] The only difference between the sequence of LF-33 and LF-27 is that LF-27 lacks the first six residues (GRRRRS) at the N-terminus of LF-33. Remarkably, this deletion led to dramatic loss of the endotoxin-neutralizing capacity of the polypeptide in this assay. Binding of serum proteins to endotoxin neutralizes the endotoxin activity in this assay by preventing endotoxin from activating LAL (Emancipator et al., Infect. Immun. 60: 596-601 (1992)).
LPS. […] LPS (purity >99%) from Neisseria meningitidis was prepared from the group B strain #6275 and its potency was 25 EU/ng. […] The potency of the above endotoxin was determined with the Limulus enzyme-linked immunosorbent assay (ELISA, 43) in comparison with US Pharmacopeia reference standard endotoxin EC-5.
Briefly, 25 μl endotoxin solution (200 EU/ml) was mixed with an equal volume of test materials in a series of two-fold dilution in 0.15 M NaCl in a sterile 96-well tissue culture plate (Nunc A/S, Roskilde, Denmark), and incubated at 37° C. for 1 h in a dry-air incubator. […] The endotoxin activity was then quantified with the use of Limulus ELISA (Zhang et al., J. Clin. Microbiol. 32: 416-422 (1994)). […] The high sensitivity of the assay allowed for very low levels of the endotoxin activity to be detected. […]

T1 sequence (P80209 45-390): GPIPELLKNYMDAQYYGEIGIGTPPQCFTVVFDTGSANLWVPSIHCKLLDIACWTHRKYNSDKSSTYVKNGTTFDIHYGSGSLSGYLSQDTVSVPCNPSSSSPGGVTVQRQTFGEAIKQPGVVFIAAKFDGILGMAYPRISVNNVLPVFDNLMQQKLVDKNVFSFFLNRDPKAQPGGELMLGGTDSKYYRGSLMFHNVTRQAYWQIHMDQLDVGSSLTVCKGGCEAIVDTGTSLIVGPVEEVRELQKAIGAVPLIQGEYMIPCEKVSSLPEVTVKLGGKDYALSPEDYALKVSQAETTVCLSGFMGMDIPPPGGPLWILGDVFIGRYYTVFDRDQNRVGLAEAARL

Compound | stability of the polypeptide on longer exposure to cathepsin D (cathepsin D) | ENC50 against N. min. LPS (N. min. LPS) | IC50 (N. min. LPS) [µM]
6 kDa polypeptide: 6 kDa fragment produced by cathepsin D digestion of human LF, amino acids 1-49 of SEQ ID NO: 2 (GRRRRSVQWCAVSQPEATKCFQWQRNMRKVRGPPVSCIKRDSPIQCIQA; listed as Homo sapiens) | stable and resistant to further degradation for at least three days | – | –
CSCC[C@H](NC(=O)[C@H](CC(N)=O)NC(=O)[C@H](CCCNC(=N)N)NC(=O)[C@H](CCC(N)=O)NC(=O)[C@H](Cc1c[nH]c2ccccc12)NC(=O)[C@H](CCC(N)=O)NC(=O)[C@H](Cc1ccccc1)NC(=O)[C@H](CS)NC(=O)[C@H](CCCCN)NC(=O)[C@@H](NC(=O)[C@H](C)NC(=O)[C@H](CCC(=O)O)NC(=O)[C@@H]1CCCN1C(=O)[C@H](CCC(N)=O)NC(=O)[C@H](CO)NC(=O)[C@@H](NC(=O)[C@H](C)NC(=O)[C@H](CS)NC(=O)[C@H](Cc1c[nH]c2ccccc12)NC(=O)[C@H](CCC(N)=O)NC(=O)[C@@H](N)C(C)C)C(C)C)[C@@H](C)O)C(=O)N[C@@H](CCCNC(=N)N)C(=O)N[C@@H](CCCCN)C(=O)N[C@H](C(=O)N[C@@H](CCCNC(=N)N)C(=O)NCC(=O)N1CCC[C@H]1C(=O)O)C(C)C [LF-27] | – | no detectable activity | > 300
